Values joined by “and” are separate entries in the source; they are usually repeats but may differ in a detail not shown here. Equal entries are not always repeated. Where two headings read alike, the source gives them in different places.
Legend:
[1] = Aqueous solubility observed on testing; type: physicochemical; conditions: stated on testing
[2] = molecular target: T1, PNCK Nano-luciferase fusion (Homo sapiens, UniProt Q6P2M8); assay: NanoBRET Target Engagement Intracellular Kinase Assay, cell-based PNCK binding screen and dose response in HEK293 cells; conditions: for IC50: 8-point concentration-response; for dose response raw signal: replicate values; for NanoBRET binding, result in words: cell-based screen / comparison with parent hit
T1 construct: host or cells: HEK293
T1 sequence (Q6P2M8 whole entry, the tested form may be a part): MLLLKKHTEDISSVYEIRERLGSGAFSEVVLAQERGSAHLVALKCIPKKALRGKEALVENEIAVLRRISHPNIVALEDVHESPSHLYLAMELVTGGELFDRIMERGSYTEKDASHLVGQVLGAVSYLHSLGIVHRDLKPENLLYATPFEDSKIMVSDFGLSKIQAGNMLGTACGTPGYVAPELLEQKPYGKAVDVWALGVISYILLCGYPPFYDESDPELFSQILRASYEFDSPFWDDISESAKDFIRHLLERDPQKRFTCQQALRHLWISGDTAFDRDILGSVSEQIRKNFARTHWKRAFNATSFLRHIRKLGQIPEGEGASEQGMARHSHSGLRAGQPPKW
Method: The NanoBRET Target Engagement Intracellular Kinase Assay (Promega N2520) is a cell-based binding screen which reads loss of BRET signal as a result of target binding. A PNCK Nano-luciferase fusion vector plasmid was generated custom by Promega. The K-10 tracer was used for the assay, as determined by Promega. The plasmid was maxiprepped by Genewiz for use in all future assays. HEK293 cells were seeded in a T175 flask in DMEM with 10% FBS. The following day, cells were counted to 10,000, resuspended in assay media (Optimem with no phenol red, 1% FBS). Plasmid and transfection reagent (Fugene HD, Promega E2311) were added to the mixture and cells were seeded in a white 96-well plate. After 20–24 hours, media was changed, and the assay proceeded according to protocol. K10 tracer was added at the recommended concentration of 1uM while compounds were initially screened at both 10uM and 1uM. Cells incubated with compound at 37 degrees Celsius for a maximum of 2 hours before the plate was read using Clariostar Plus. Data was normalized to Staurosporine and DMSO controls. For compounds selected for further analysis, dose response curves were generated using the same testing protocol but at 8 different concentrations: 24uM, 12uM, 6uM, 3uM, 1.5uM, .75uM 0.375uM and 0.1875uM. UM195 was tested with concentrations from 12uM to 0.09375. Similarly, compounds from the analog by catalog analysis were tested at concentrations from 24uM to 0.1875uM.
(§1) Data analysis of ADP Kinase Glo results were carried out per the manufacturer’s instructions. Results were represented as a percent decrease in activity. Data was normalized to staurosporine (positive control) as 100% decrease and DMSO (negative control) as a 0% decrease. Data for NanoBRET was analyzed by dividing the acceptor by the donor emission and […] to obtain raw millibret units (mBU). Background was subtracted using control emission averages. Data was normalized to positive and negative controls of staurosporine and DMSO. Concentration-response curves were plotted in GraphPad Prism 8 and IC50s were extrapolated using non-linear fit with concentrations transformed to logarithmic scale. Baseline was held constant and represented the average mBU of staurosporine controls while the top was constrained to represent the average mBU of DMSO controls. Error bars on dose-response curves represent standard deviations.

[3] = molecular target: T1, PNCK Nano-luciferase fusion; assay: as above
[4] = molecular target: T2, GST-tagged PNCK recombinant protein (Homo sapiens, UniProt Q6P2M8); assay: ADP-Glo Kinase Assay, biochemical PNCK inhibitor screen; conditions: for inhibition at 10 µM: read-out: Avg. Normalized % Inhibition, 10uM, ADP Kinase Glo
T2 construct: GST; purchased Novus NBP1-99886
Method: ADP-Glo Kinase Assay (V6930, Promega) was used to screen the first round of compounds against PNCK. […] Autocamtide-II (GenScript RP10271) was used as the peptide substrate. This peptide was dissolved in water and prepared immediately prior to the assay. Calcium/Calmodulin 10X (Abcam ab189137) solution was used to create a custom kinase buffer: 40mM Tris,pH 7.5; 20mM MgCl2; 0.1mg/ml BSA; 50μM DTT and Ca2+/Calmodulin solution (0.03μg/μl, Calmodulin, 1mM Tris,pH 7.3, 0.5mM CaCl2). […] A standard curve was then done to determine the amount of protein needed to generate a signal in the linear range of the ATP curve. 100ng of PNCK and 2ng of substrate was used per well in the 96-well plate format of this assay. […] Plates were read using the Clariostar Plus. Data was normalized to a DMSO and staurosporine controls.
as §1

[5] = compound 1uM, HEK293, K10 tracer 1uM, normalized to staurosporine and DMSO, read-out: Avg. Normalized % Inhibition, 1uM, Nanobret
[6] = compound 10uM, HEK293, K10 tracer 1uM, normalized to staurosporine and DMSO, read-out: Avg. Normalized % Inhibition, 10uM, Nanobret
[7] = compound 10uM, 25uM ATP, normalized to DMSO and staurosporine controls
[8] = HEK293, read-out: Avg. Normalized % Inhibition, 1uM, Nanobret
[9] = HEK293, read-out: Avg. Normalized % Inhibition, 10uM, Nanobret

SMILES: Cc1ccc(C)c(OCc2nc(-c3cccnn3)no2)c1C [UM_245]
- aqueous solubility [1]: poor aqueous solubility

SMILES: COC(=O)c1cnc(Sc2nnc(-c3cccc4ccccc34)o2)cn1 [UM_254]
- IC50 ([2]; HEK293): 2.68 µM
- Dose-Response Curve Data (NanoBRET signal, replicates) ([2]; Concentration 1.25E-06 M): 7.15 and 8.63 and 7.69 and 7.36
- Dose-Response Curve Data (NanoBRET signal, replicates) ([2]; Concentration 2.00E-05 M): 4.80 and 4.63 and 5.32 and 4.99
- Dose-Response Curve Data (NanoBRET signal, replicates) ([2]; Concentration 2.50E-06 M): 7.32 and 7.44 and 7.90 and 7.31
- Dose-Response Curve Data (NanoBRET signal, replicates) ([2]; Concentration 5.00E-06 M): 6.60 and 7.13 and 7.18 and 7.54
- Dose-Response Curve Data (NanoBRET signal, replicates) ([2]; Concentration 6.25E-07 M): 7.54 and 7.48 and 8.39 and 8.00
- inhibition at 1 µM [2, 5]: 16.1%
- inhibition at 10 µM [2, 6]: 68.2%
- Dose-Response Curve Data (NanoBRET signal, replicates) ([3]; Concentration 1.00E-05 M): 5.13 and 5.39 and 6.19 and 4.97
- Dose-Response Curve Data (NanoBRET signal, replicates) ([3]; Concentration 1.56E-07 M): 8.00 and 8.01 and 8.11 and 8.38
- Dose-Response Curve Data (NanoBRET signal, replicates) ([3]; Concentration 3.13E-07 M): 8.00 and 8.43 and 7.99 and 7.89

SMILES: O=C1CN(C(=O)COc2ccc3c4c(c(=O)oc3c2)CCCCC4)CCN1 [UM_259]
- IC50 ([2]; HEK293): 2.9 µM
- dose response raw signal ([2]; Concentration (M) 1.00E-05): 4.13 and 4.39 and 5.19 and 4.12
- dose response raw signal ([2]; Concentration (M) 1.25E-06): 5.91 and 7.63 and 6.69 and 6.36
- dose response raw signal ([2]; Concentration (M) 1.56E-07): 7.98 and 8.01 and 8.32 and 8.22
- dose response raw signal ([2]; Concentration (M) 2.50E-06): 4.91 and 6.63 and 5.69 and 5.36
- dose response raw signal ([2]; Concentration (M) 3.13E-07): 8.79 and 8.75 and 7.57 and 7.89
- dose response raw signal ([2]; Concentration (M) 5.00E-06): 4.98 and 5.24 and 5.45 and 6.11
- dose response raw signal ([2]; Concentration (M) 6.25E-07): 8.89 and 8.75 and 7.37 and 7.79
- NanoBRET binding, result in words [2]: higher affinity for PNCK than the parent
- inhibition at 1 µM [2, 5]: 27.5%
- inhibition at 10 µM [2, 6]: 84.1%
- dose response raw signal ([3]; Concentration (M) 2.00E-05, replicate values): 4.80 and 4.22 and 5.32 and 4.30

SMILES: Oc1c(/C=N/c2ccc(Br)cn2)sc2ccccc12 [UM_234]
- aqueous solubility [1]: poor aqueous solubility
- inhibition at 1 µM [2, 5]: 5.92%
- inhibition at 10 µM [2, 6]: 17.1%

SMILES: O=C(O)Cc1ccc(NS(=O)(=O)c2cccc(Cl)c2Cl)cc1 [UM_024]
- inhibition at 1 µM [2, 5]: 0%
- inhibition at 10 µM [2, 6]: 0%
- inhibition at 10 µM [4, 7]: 48.6%

SMILES: CC1CCc2c(sc(NC(=O)CSc3ncc(-c4ccc(F)cc4)[nH]3)c2C(N)=O)C1 (stereo not shown) [UM_252]
- IC50 ([2]; HEK293): 1.09 µM
- Dose-Response Curve Data (NanoBRET signal, replicates) ([2]; Concentration 1.25E-06 M): 5.69 and 4.76 and 5.57 and 5.29 and 6.48
- Dose-Response Curve Data (NanoBRET signal, replicates) ([2]; Concentration 2.00E-05 M): 4.90 and 5.31 and 5.12 and 5.26 and 5.44
- Dose-Response Curve Data (NanoBRET signal, replicates) ([2]; Concentration 2.50E-06 M): 5.05 and 5.03 and 4.81 and 5.42 and 6.45
- Dose-Response Curve Data (NanoBRET signal, replicates) ([2]; Concentration 5.00E-06 M): 4.80 and 4.70 and 5.14 and 6.28 and 5.58
- Dose-Response Curve Data (NanoBRET signal, replicates) ([2]; Concentration 6.25E-07 M): 5.77 and 5.39 and 5.91 and 7.06 and 6.32
- NanoBRET binding, result in words [2]: improving from the IC50 of UM_228 by one order of magnitude
- inhibition at 1 µM [2, 5]: 49.9%
- inhibition at 10 µM [2, 6]: 79.1%
- Dose-Response Curve Data (NanoBRET signal, replicates) ([3]; Concentration 1.00E-05 M): 5.51 and 5.44 and 5.21 and 5.32 and 4.78
- Dose-Response Curve Data (NanoBRET signal, replicates) ([3]; Concentration 1.56E-07 M): 6.58 and 6.82 and 6.54 and 7.24 and 6.53
- Dose-Response Curve Data (NanoBRET signal, replicates) ([3]; Concentration 3.13E-07 M): 6.79 and 6.18 and 7.47 and 6.16 and 7.19

SMILES: O=c1nc(CSc2nnc(-c3ccccc3)c3ccccc23)[nH][nH]1 [UM_022]
- inhibition at 1 µM [2, 5]: 0%
- inhibition at 10 µM [2, 6]: 10.5%
- Avg. Normalized % Inhibition, 10uM, ADP Kinase Glo [4, 7]: Negligible

SMILES: CN([C@@H](Cc1ccc(OS(=O)(=O)c2cccc3cnccc23)cc1)C(=O)N1CCN(c2ccccc2)CC1)S(=O)(=O)c1cccc2cnccc12 [KN-62, reference compound]
- inhibition at 1 µM [2, 8]: 31.2%
- inhibition at 10 µM [2, 9]: 81.5%
- inhibition at 10 µM [4, 7]: 100%

SMILES: Cc1c(C(=O)O)sc2ncnc(NCc3nncn3CCc3ccccc3)c12 [UM_033]
- inhibition at 1 µM [2, 5]: 8.63%
- inhibition at 10 µM [2, 6]: 13.5%
- inhibition at 10 µM [4, 7]: 50.8%

SMILES: O=C1NC(=O)C(=Cc2ccc(Sc3nc4ccccc4[nH]3)o2)C(=O)N1 [UM_036]
- inhibition at 1 µM [2, 8]: 2.83%
- inhibition at 10 µM [2, 9]: 16.8%
- inhibition at 10 µM [4]: 39.2%

SMILES: CC(C)(CC(=O)Nc1ccc(Oc2ccnc3ccccc23)c(F)c1)C(=O)O [UM_026]
- inhibition at 1 µM [2, 5]: 0%
- inhibition at 10 µM [2, 6]: 0%
- Avg. Normalized % Inhibition, 10uM, ADP Kinase Glo [4, 7]: 76.56%

SMILES: O=C(O)Cc1cc(C2CCN(C(=O)c3ccc(C(F)(F)F)nc3O)CC2)[nH]n1 [UM_031]
- inhibition at 1 µM [2, 5]: 13.3%
- inhibition at 10 µM [2, 6]: 14.6%
- inhibition at 10 µM [4, 7]: 7.65%

SMILES: COc1ccc(Cl)c(S(=O)(=O)Nc2ccc(OCC(=O)O)cc2)c1 [UM_038]
- inhibition at 1 µM [2, 5]: 0%
- inhibition at 10 µM [2, 6]: 18.9%
- Avg. Normalized % Inhibition, 10uM, ADP Kinase Glo [4, 7]: 68.8%
- inhibition at 10 µM [4, 7]: > 50%

Reference: PMC10249896, “AI-Assisted chemical probe discovery for the understudied Calcium-Calmodulin Dependent Kinase, PNCK” (PLOS Computational Biology, 2023)
